Patent publication US12599560B2, “Lipids and lipid nanoparticle formulations” (Longuide Biopharma Corporation, priority 2023, dated 2026)

Experiments:
mice = experiment: In vivo delivery of FLuc-mRNA lipid nanoparticle preparations in mice (IVIS imaging); parameters: In vivo IVIS / In vivo IVIS (liver) / In vivo IVIS (spleen): unit not given here; conditions: for in vivo delivery efficiency as compared to the benchmark compound SM102: certain formulations
Description: 7. In Vivo Delivery of the Nucleic Acid Lipid Nanoparticle Preparations in Mice After the preparation was completed, the preparation was injected intramuscularly (mice rectus femoris muscle of the thigh) or intravenously (mice tail vein), with approximately 75 μL per mouse, for a total of 3 mice. After a certain time of injection, in vivo imaging (PerkinElmer, IVIS Lumina III) was performed. 10-15 minutes before imaging, 200 μL of 15 mg/mL D-Luciferin working solution was injected intraperitoneally, and the imaging analysis was performed using an in vivo imager.

[1] = Particle size and PDI by dynamic light scattering; type: physicochemical
Description: The 7.5 μL nucleic acid lipid nanoparticle solution (containing approximately 0.04 mg/mL mRNA) was taken and added with 200 μL ultrapure water, mixed by gentle blowing using a pipette tip, and the particle size of the nanopreparation was detected by dynamic lightscattering (DLS) using a Malvern Dynamic Light Scattering Instrument (Malvern Instruments Ltd., ZEN3700, UK). 27.5 μL nucleic acid lipid nanoparticle solution (containing about 0.04 mg/mL mRNA) was taken and added with 200 μL ultrapure water. A pipette tip was used to gently blow the sample and mix well. The particle size of the nanopreparation was detected by Malvern Dynamic Light Scattering Instrument (Malvern Instruments Ltd., ZEN3700, UK). After the detection, the sample was recovered to an EP tube, and 600 μL of ultrapure water was added, gently blown with a pipette tip, and the potential of the nanopreparation was measured by a Malvern particle size meter.

[2] = Table 2, IV, whole body scan, molar ratio DMG-PEG2000:DSPC:Chol:Lipid and N/P
[3] = Table 2, LNP formulation with mRNA
[4] = Table 2, LNP formulation with mRNA, molar ratio 1.40:11.15:38.95:48.50, N/P 30
[5] = Table 2, polydispersity value, molar ratio 1.40:11.15:38.95:48.50, N/P 30
[6] = Table 4, molar ratio 1.40:11.15:38.95:48.50, N/P 28, IM formulation
[7] = Table 4, molar ratio 2.50:11.50:51.00:35.00, N/P 32, IV formulation
[8] = Table 4, molar ratio 1.40:11.15:38.95:48.50, N/P 36, IV formulation
[9] = Table 4, molar ratio 2.00:4.00:59.00:35.00, N/P 35, IM formulation

Compound | PDI ([1]; Table 4) | Particle size (nm) ([1]; Table 4) | In vivo IVIS (mice; Table 2, IM, whole body scan) | In vivo IVIS (mice; [2]) | In vivo IVIS (mice; Table 4, IM) | In vivo IVIS (mice; Table 4, IV) | also measured
CCCCCCCCCCNC(=O)C(O)CN1CCN(CCN(CC(O)C(=O)NCCCCCCCCCC)CC(O)C(=O)NCCCCCCCCCC)CC1 (stereo not drawn) [Compound L0180] |  |  | 1.10 × 10^7 | 3.15 × 10^6 |  |  | Particle size (nm) ([1]; Table 2, LNP formulation with mRNA, molar ratio 1.09:8.66:30.25:60.00, N/P 21): 84.26 ± 0.81 nm; Particle size (nm) ([1]; Table 2, LNP formulation with mRNA, molar ratio 1.40:11.15:38.95:48.50, N/P 21): 86.34 ± 1.35 nm; PDI ([1]; Table 2, polydispersity value, molar ratio 1.09:8.66:30.25:60.00, N/P 21): 0.13 ± 0.01; PDI ([1]; Table 2, polydispersity value, molar ratio 1.40:11.15:38.95:48.50, N/P 21): 0.18 ± 0.01
CCCCCCOCOCCCCCCOC(=O)C(O)CN1CCN(CCN(CC(O)C(=O)OCCCCCCOCOCCCCCC)CC(O)C(=O)OCCCCCCOCOCCCCCC)CC1 (stereo not drawn) [Compound L0184] |  |  | 4.88 × 10^6 | 1.17 × 10^8 |  |  | Particle size (nm) ([1]; Table 2, LNP formulation with mRNA, molar ratio 1.09:8.66:30.25:60.00, N/P 50): 128.20 ± 0.95 nm; Particle size (nm) ([1]; Table 2, LNP formulation with mRNA, molar ratio 1.40:11.15:38.95:48.50, N/P 50): 119.60 ± 0.40 nm; PDI ([1]; Table 2, polydispersity value, molar ratio 1.09:8.66:30.25:60.00, N/P 50): 0.09 ± 0.01; PDI ([1]; Table 2, polydispersity value, molar ratio 1.40:11.15:38.95:48.50, N/P 50): 0.06 ± 0.00
CC/C=C\CCOCOCCCCCCOC(=O)C(O)CN(CCN1CCN(CCN(CC(O)C(=O)OCCCCCCOCOCC/C=C\CC)CC(O)C(=O)OCCCCCCOCOCC/C=C\CC)CC1)CCN(CC(O)C(=O)OCCCCCCOCOCC/C=C\CC)CC(O)C(=O)OCCCCCCOCOCC/C=C\CC (stereo not drawn) [Compound L0201] |  |  | 2.18 × 10^6 | 4.46 × 10^6 |  |  | In vivo IVIS (liver) (mice; Table 2, IV, liver): 5.29 × 10^8; In vivo IVIS (spleen) (mice; Table 2, IV, spleen): 7.89 × 10^7; in vivo delivery efficiency as compared to the benchmark compound SM102 (mice; Table 2): superior in vivo delivery efficiency; Particle size (nm) [1, 3]: 119.70 ± 0.61 nm; PDI ([1]; Table 2, polydispersity value): 0.07 ± 0.01
CCCCCCCCCCNC(=O)C(O)CN(Cc1ccc(CN(CC(O)C(=O)NCCCCCCCCCC)CC(O)C(=O)NCCCCCCCCCC)cc1)CC(O)C(=O)NCCCCCCCCCC (stereo not drawn) [Compound L0215] | 0.11 ± 0.01 | 119.27 ± 1.75 |  |  | 2.45 × 10^5 | 4.06 × 10^5 | 
CCCCCCCCCCOC(=O)C(O)CN(Cc1ccc(CN(CC(O)C(=O)OCCCCCCCCCC)CC(O)C(=O)OCCCCCCCCCC)cc1)CC(O)C(=O)OCCCCCCCCCC (stereo not drawn) [Compound L0211] | 0.22 ± 0.00 | 134.47 ± 2.72 |  |  | 1.37 × 10^5 | 1.36 × 10^5 | 
CCCCCCCCCCSSCCOC(=O)C(O)CN1CCN(CCN(CC(O)C(=O)OCCSSCCCCCCCCCC)CC(O)C(=O)OCCSSCCCCCCCCCC)CC1 (stereo not drawn) [Compound L0185] |  |  | 2.52 × 10^7 | 2.72 × 10^6 |  |  | Particle size (nm) ([1]; Table 2, LNP formulation with mRNA, molar ratio 0.95:7.58:26.47:65.00, N/P 30): 94.35 ± 0.52 nm; Particle size (nm) [1, 4]: 84.46 ± 1.39 nm; PDI ([1]; Table 2, polydispersity value, molar ratio 0.95:7.58:26.47:65.00, N/P 30): 0.13 ± 0.02; PDI [1, 5]: 0.20 ± 0.00
CCCCCCCC/C=C\CCCCCCCCNC(=O)C(O)CN(CCCN1CCN(CCCN(CC(O)C(=O)NCCCCCCCC/C=C\CCCCCCCC)CC(O)C(=O)NCCCCCCCC/C=C\CCCCCCCC)CC1)CC(O)C(=O)NCCCCCCCC/C=C\CCCCCCCC (stereo not drawn) [Compound L0229] | 0.10 ± 0.02 | 179.07 ± 0.38 |  |  | 5.61 × 10^6 | 2.46 × 10^8 | 
CCCCCCCC/C=C\CCCCCCCCNC(=O)C(O)CN1CCN(CCN(CC(O)C(=O)NCCCCCCCC/C=C\CCCCCCCC)CC(O)C(=O)NCCCCCCCC/C=C\CCCCCCCC)CC1 (stereo not drawn) [Compound L0223] | 0.13 ± 0.03 | 98.88 ± 1.32 |  |  | 1.83 × 10^6 | 1.42 × 10^8 | 
CCCCCCCCCCCCNC(=O)C(O)CN1CCN(CCN(CC(O)C(=O)NCCCCCCCCCCCC)CC(O)C(=O)NCCCCCCCCCCCC)CC1 (stereo not drawn) [Compound L0181] |  |  | 3.37 × 10^6 |  |  |  | Particle size (nm) [1, 3]: 71.39 ± 0.26 nm; PDI ([1]; Table 2, polydispersity value): 0.16 ± 0.02
CCCCCCCCCCCCCCOC(=O)C(O)CN(CCCN1CCN(CCCN(CC(O)C(=O)OCCCCCCCCCCCCCC)CC(O)C(=O)OCCCCCCCCCCCCCC)CC1)CC(O)C(=O)OCCCCCCCCCCCCCC (stereo not drawn) [Compound L0228] |  |  |  |  | 8.22 × 10^6 | 9.28 × 10^9 | PDI [1, 6]: 0.18 ± 0.01; Particle size (nm) [1, 6]: 140.50 ± 1.21 nm; PDI [1, 7]: 0.13 ± 0.01; Particle size (nm) [1, 7]: 120.07 ± 0.60 nm
CCCCCCCCCCCCOC(=O)C(O)CN1CCN(CCN(CC(O)C(=O)OCCCCCCCCCCCC)CC(O)C(=O)OCCCCCCCCCCCC)CC1 (stereo not drawn) [Compound L0183] |  |  | 2.37 × 10^7 | 5.98 × 10^7 |  |  | Particle size (nm) ([1]; Table 2, LNP formulation with mRNA, molar ratio 1.40:11.15:38.95:48.50, N/P 24): 75.73 ± 0.33 nm; Particle size (nm) ([1]; Table 2, LNP formulation with mRNA, molar ratio 1.63:12.99:45.38:40.00, N/P 24): 94.49 ± 1.06 nm; PDI ([1]; Table 2, polydispersity value, molar ratio 1.40:11.15:38.95:48.50, N/P 24): 0.14 ± 0.01; PDI ([1]; Table 2, polydispersity value, molar ratio 1.63:12.99:45.38:40.00, N/P 24): 0.16 ± 0.01
CCCCCCCCCCCCNC(=O)C(O)CN(CCCN1CCN(CCCN(CC(O)C(=O)NCCCCCCCCCCCC)CC(O)C(=O)NCCCCCCCCCCCC)CC1)CC(O)C(=O)NCCCCCCCCCCCC (stereo not drawn) [Compound L0190] |  |  | 1.19 × 10^6 |  |  |  | Particle size (nm) [1, 3]: 121.87 ± 2.71 nm; PDI ([1]; Table 2, polydispersity value): 0.20 ± 0.01
CCCCCCCCCCOC(=O)C(O)CN1CCN(CCN(CC(O)C(=O)OCCCCCCCCCC)CC(O)C(=O)OCCCCCCCCCC)CC1 (stereo not drawn) [Compound L0182] |  |  | 3.25 × 10^7 | 4.99 × 10^6 |  |  | Particle size (nm) ([1]; Table 2, LNP formulation with mRNA, molar ratio 1.09:8.66:30.25:60.00, N/P 30): 89.38 ± 0.09 nm; Particle size (nm) [1, 4]: 83.26 ± 0.68 nm; PDI ([1]; Table 2, polydispersity value, molar ratio 1.09:8.66:30.25:60.00, N/P 30): 0.16 ± 0.01; PDI [1, 5]: 0.14 ± 0.01
CCCCCCCCCCNC(=O)C(O)CN(CCCN1CCN(CCCN(CC(O)C(=O)NCCCCCCCCCC)CC(O)C(=O)NCCCCCCCCCC)CC1)CC(O)C(=O)NCCCCCCCCCC (stereo not drawn) [Compound L0189] |  |  | 2.16 × 10^6 | 3.12 × 10^7 |  |  | Particle size (nm) ([1]; Table 2, LNP formulation with mRNA, molar ratio 1.09:8.66:30.25:60.00, N/P 20): 106.80 ± 0.85 nm; Particle size (nm) ([1]; Table 2, LNP formulation with mRNA, molar ratio 1.40:11.15:38.95:48.50, N/P 10): 85.92 ± 0.69 nm; PDI ([1]; Table 2, polydispersity value, molar ratio 1.09:8.66:30.25:60.00, N/P 20): 0.06 ± 0.04; PDI ([1]; Table 2, polydispersity value, molar ratio 1.40:11.15:38.95:48.50, N/P 10): 0.07 ± 0.02
CCCCCCC(CCCCCC)C(=O)OCCCCOC(=O)C(O)CN(CCCN1CCN(CCCN(CC(O)C(=O)OCCCCOC(=O)C(CCCCCC)CCCCCC)CC(O)C(=O)OCCCCOC(=O)C(CCCCCC)CCCCCC)CC1)CC(O)C(=O)OCCCCOC(=O)C(CCCCCC)CCCCCC (stereo not drawn) [Compound L0196] |  |  | 1.82 × 10^8 | 2.00 × 10^9 |  |  | in vivo delivery efficiency as compared to the benchmark compound SM102 (mice; Table 2): superior in vivo delivery efficiency; Particle size (nm) [1, 3]: 89.18 ± 0.22 nm; PDI ([1]; Table 2, polydispersity value): 0.11 ± 0.01
CCCCCCOC(C)OCCCCCCOC(=O)C(O)CN(CCCN1CCN(CCCN(CC(O)C(=O)OCCCCCCOC(C)OCCCCCC)CC(O)C(=O)OCCCCCCOC(C)OCCCCCC)CC1)CC(O)C(=O)OCCCCCCOC(C)OCCCCCC (stereo not drawn) [Compound L0224] |  |  |  |  | 3.31 × 10^8 | 4.84 × 10^9 | PDI [1, 8]: 0.07 ± 0.02; Particle size (nm) [1, 8]: 108.57 ± 1.60 nm; PDI [1, 9]: 0.14 ± 0.01; Particle size (nm) [1, 9]: 84.67 ± 0.79 nm

Continued, in another order:

PDI ([1]; Table 4) | Particle size (nm) ([1]; Table 4) | Compound | In vivo IVIS (mice; Table 2, IM, whole body scan) | In vivo IVIS (mice; [2]) | In vivo IVIS (mice; Table 4, IM) | In vivo IVIS (mice; Table 4, IV) | also measured
0.18 ± 0.01 | 95.87 ± 0.24 | CCCCCCCCCCCCOC(=O)C(O)CN[C@H]1CC[C@@H](N(CC(O)C(=O)OCCCCCCCCCCCC)CC(O)C(=O)OCCCCCCCCCCCC)CC1 (stereo partly drawn) [Compound L0212] |  |  | 1.40 × 10^7 | 1.38 × 10^8 | 
0.07 ± 0.02 | 140.97 ± 1.48 | CC/C=C\CCOCOCCCCCCOC(=O)C(O)CN1CCN(CCN(CC(O)C(=O)OCCCCCCOCOCC/C=C\CC)CC(O)C(=O)OCCCCCCOCOCC/C=C\CC)CC1 (stereo not drawn) [Compound L0221] |  |  | 1.85 × 10^5 | 3.94 × 10^5 | 
